In US8648115B2 (priority 2009, dated 2014):
Several values for one entry are separate records, joined by “and”; a condition that tells them apart may be missing. Identical values can stand only once. Like-named read-outs stand apart in the source and are kept apart here.

Columns and labels:
Phytophthora infestans [1] = experiment: microbe, parasite or virus in culture; assay type: cell-based
Phytophthora infestans [2] = assay type: in vivo; details: 3 days after inoculation
[3] = test system: Potato plants (Solanum tuberosum L. cv. Désirée); details: in vivo
Phytophthora infestans [4] = experiment: microbe, parasite or virus in culture; assay type: cell-based; details: for IC50: Phytophthora infestans, read-out: Phytophtora infestans (mycelial growth) IC 50
Colletotrichum coccodes = Colletotrichum coccodes mycelial growth bioassay (OD590); assay type: cell-based
Experimental: FIG. 6: Inhibitory effect of (E)-4-oxohexadec-2-enoic acid on the mycelial growth of Colletotrichum coccodes. One-day old mycelium in 96-well plates was inoculated with different (E)-4-oxohexadec-2-enoic acid concentrations. The growth of C. coccodes was determined by measuring the OD590. The experiment was repeated twice, with identical results.
C. coccodes (CBS369.75) was grown for five days in 50 ml of liquid soybean medium in the dark at 18° C. on a rotary shaker. In order to isolate spores, all of the culture was centrifuged for 5 min at 2100 g and 4° C. The supernatant, which contained the spores, was recentrifuged (10 min, 6500 g, 4° C.). After the supernatant had been decantered off, the pelleted spores were washed carefully in deionized water, centrifuged as above and finally the spore concentration was adjusted to 1×10^5 spores/ml in soybean medium. To carry out the biotest, 200 μl of this spore solution were pipetted into each well of a 96-well plate (Nunc A/S, Denmark). The plates were incubated in an incubator for 24 h at 17° C. in the dark to allow germination. Then, test concentrations of (E)-4-oxohexadec-2-enoic acid were pipetted in as described above, with final concentrations of from 0.01 μM to 100 μM and 2% (v/v) ethanol. The plates were returned into the incubator and the increase in fungal biomass was determined by daily OD590 measurements.
To determine whether (E)-4-oxohexadec-2-enoic acid also has an inhibitory effect on the ascomycete c. coccodes, the causative organism of, inter alia, black dot disease of potato, a multiwell bioassay was set up. The growth of the fungus in liquid medium was determined on the basis of the measurement of the optical density (OD590). A medium containing soya was used for this purpose. One-day old mycelium was inoculated together with various concentrations of (E)-4-oxohexadec-2-enoic acid, and the growth of C. coccodes was determined every 24 h. […] Increasing concentrations reduced the fungal growth even further.

Phytophthora infestans [5] = assay type: cell-based; details: lower concentrations (1-100 μM drops); three-week old mycelium; 24 h
[6] = Phytophthora infestans, read-out: Phytophthora infestans (spore germination) IC 50, spore germination
[7] = read-out: Phytophthora infestans (spore germination) IC 50, spore germination

Q: Which IC50 (Phytophthora infestans [1]; [6]) does the source give for `CCCCCC(=O)/C=C/C(=O)O` [drawing 6] here?
A: The IC50 was 14 nM.

Q: How did the IC50 (Phytophthora infestans [1]; [6]) turn out when `CCCCCC(=O)/C=C/C(=O)O` [drawing 5] was run?
A: The IC50 was 0.002 µg/mL.

Q: What about the IC50 (Phytophthora infestans [1]; [7]) of the same molecule?
A: Its IC50 is 12 nM.

Q: For `CCCCCCCCCCCCC(=O)/C=C/C(=O)[O-].[Na+]` [sodium (E)-4-oxohexadec-2-enoate, Sodium (E)-4-oxohexadec-2-enoate], which “Inhibition of infection with P. infestans compared with untreated control plants” value (Phytophthora infestans [2]; 10 μM spray 2 h before inoculation) is on record?
A: Its value is 80%.

Q: And the “Inhibition of infection with P. infestans compared with untreated control plants” value (Phytophthora infestans [2]; 100 μM spray 2 h before inoculation)?
A: The value was 95%.

Q: What about the “Toxic effects on the leaves” value [3] of the same molecule?
A: Its value is “no toxic effects on the leaves”.

Q: `CCCCCCCCCCCCC(=O)/C=C/C(=O)[O-].[K+]` [drawing 9] was tested. Which IC50 (Phytophthora infestans [1]; [6]) did it give?
A: The IC50 was 0.018 µg/mL.

Q: What about the IC50 (Phytophthora infestans [1]; [7]) of the same molecule?
A: The IC50 was 60 nM.

Q: Which IC50 (Phytophthora infestans [4]) does the source give for `O=C(O)/C=C/C(=O)CCCCCCCCCCF` here?
A: The IC50 was 80 µM and 20.7 µg/mL.

Q: What about the IC50 (Phytophthora infestans [1]; [6]) of the same molecule?
A: Its IC50 is 70 nM and 0.018 µg/mL.

Q: What does the source list for `CCCCCCCCCCCCC(=O)/C=C/C(=O)O` [drawing 8]?
A: IC50 (Phytophthora infestans [4]): 450 µM and 121 µg/mL; IC50 (Phytophthora infestans [1]; [6]): 70 nM and 0.0018 µg/mL

Q: With `CCCCCCCCCCCCCCCCCCC(=O)/C=C/C(=O)O` as the molecule, how does the IC50 (Phytophthora infestans [1]; [6]) read?
A: The IC50 was 100 nM and 0.035 µg/mL.

Q: Which “Growth of C. coccodes” value (Colletotrichum coccodes; 0.01 μM) does the source give for `CCCCCCCCCCCCC(=O)/C=C/C(=O)O` [(E)-4-oxohexadec-2-enoic acid] here?
A: Its value is “significant inhibitory effect”.

Q: And the “Inhibition of growth of C. coccodes compared with the ethanol control” value (Colletotrichum coccodes; 1 μM)?
A: The value was “more than half”.

Q: What about the “Growth of C. coccodes” value (Colletotrichum coccodes; 100 μM) of the same molecule?
A: Its value is “complete inhibition”.

Q: What about the “Mycelial growth (GFP fluorescence)” value (Phytophthora infestans [4]; 1 mM, one-day old mycelium) of the same molecule?
A: The value was “growth was inhibited”.

Q: What about the “Viability of mature mycelium” value (Phytophthora infestans [5]) of the same molecule?
A: The value was “clear negative effect on mycelia viability”.

Q: And the Spore germination (Phytophthora infestans [1]; 10 nM, 24 h)?
A: The Spore germination was “reduced”.

Q: And the “Reduction of spore germination compared with the ethanol control” value (Phytophthora infestans [1]; 100 nM, 24 h)?
A: Its value is “more than 50%”.

Q: And the Spores germinated (Phytophthora infestans [1]; 1 μM, 24 h)?
A: Its Spores germinated is under 10%.

Q: What about the Spore germination (Phytophthora infestans [1]; 3.7 μM, 24 h) of the same molecule?
A: The Spore germination was “prevented completely”.

Q: What about the Spore lysis (Phytophthora infestans [1]; 100 μM) of the same molecule?
A: Its Spore lysis is “spore lysis was observed”.

Q: And the “Length of the germination tubes” value (Phytophthora infestans [1]; increasing concentrations)?
A: The value was “had an effect on the length of the germination tubes”.

Q: For `CCCC(=O)/C=C/C(=O)O`, which IC50 (Phytophthora infestans [1]; [6]) is on record?
A: The IC50 was 14 nM and 0.0019 µg/mL.
